The subject of data set [1] is Human cytomegalovirus (HCMV), CMV strain AD 169. The data set can be described thus: CMV assay (plaque reduction assay, MRC5 cells). The data set is classed as cell-based. The settings on record: Human betaherpesvirus 5, HCMV strain AD 169. The protocol: Human cytomegalovirus (HCMV) was assayed in monolayers of either MRC5 cells (human embryonic lung) in multiwell trays. The strandard CMV strain AD 169 was used. Activity of compounds is determined in the plaque reduction assay, in which a cell monolayer is infected with a suspension of HCMV, and then overlaid with nutrient […] in the form of a gel to ensure that there is no spread of virus throughout the culture. A range of concentrations of compound of known molarity was incorporated in the nutrient agarose overlay. Plaque numbers at each concentration of drug are expressed as percentage of the control and a dose-response curve is drawn.
In general terms: Plaques are areas of infected cells; plaque reduction assays count them against a control.

A short description of data set [2]: Cell toxicity (cell growth inhibition assay, MTT uptake). The settings on record: monkey, 50% inhibition of cell viability at 96 hours, Vero cells, read-out: Cytoxicity CClD50. In kind it is cell-based. The protocol:
Cell toxicity is assessed in cell growth inhibition assay. Subconfluent cultures of Vero cells grown on 96-well microtiter dishes are exposed to different dilutions of drug, and cell viability determined daily on replicate cultures using uptake of a tetrazolium dye (MTT). The concentration required for 50% inhibition of cell viability at 96 hours is termed CCID50.

By IC50 is commonly meant the concentration that inhibits the measured activity by half. A high value points to weaker potency in that assay. Regarding `O=C1NC(=O)c2c1c1c3cc(Cl)ccc3[nH]c1c1[nH]c3ccc(Cl)cc3c21` [12,13-Dihydro-3,9-dichloro-5H-indolo[2,3-a]pyrrolo[3,4-c]carbazole-5,7(6H)-dione], the IC50 in data set [1] amounted to 0.16 µM. In addition, the CC50 at 96 h in data set [2] was over 125 µM.

`O=C1c2c(c3c4ccccc4[nH]c3c3[nH]c4ccccc4c23)C(=O)N1Cc1cc(C(F)(F)F)cc(C(F)(F)F)c1` [12,13-Dihydro-6-(3,5-di-trifluoromethylphenylmethyl)-5H-indolo [2,3a]pyrrolo[3,4c]carbazole-5,7(6H)-dione] yielded an IC50 in data set [1] of 5.7 µM. In data set [2], the CC50 at 96 h was over 125 µM.

`O=C1c2c(c3c4ccccc4[nH]c3c3[nH]c4ccccc4c23)C(=O)N1Cc1cccc(C(F)(F)F)c1` [12,13-Dihydro-6-(3-trifluoromethylphenylmethyl)-5H-indolo[2,3a]pyrrolo[3,4c]-carbazole-5,7-(6H)-dione]: the half-maximal inhibitory concentration (IC50) in data set [1] was 1.2 µM. Further, the CC50 at 96 h in data set [2] was over 500 µM.

Source of the values: patent publication US5547976A, “Further indole derivatives with antiviral activity” (Burroughs Wellcome Co., priority 1992, dated 1996).
